Tested on: GTPase KRas (Homo sapiens), P01116 [G12C]
Test: Binding affinity to His-tagged KRAS (1 to 169 residues) G12C mutant (unknown origin) at 10 to 100 uM after 24 hrs by mass spectrometric method

| SMILES | Activity |
| --- | --- |
| C=Cc1ccccc1S(=O)(=O)NC[C@H]1C[C@@H]2O[C@H](COCc3ccccc3)[C@@H](OCc3ccccc3)[C@@H]2O1 | 10 to 15% |
| C=Cc1cccc(S(=O)(=O)NCCOc2cccc3ccccc23)c1 | 5 to 10% |
| C=Cc1cccc(S(=O)(=O)NC[C@@H]2C[C@@H]3O[C@H](CO)[C@@H](OCc4ccccc4)[C@@H]3O2)c1 | 10 to 15% |
| C=CS(=O)(=O)NCCOc1cccc2ccccc12 | 10 to 15% |
| C=Cc1ccccc1S(=O)(=O)NC[C@H]1C[C@@H]2O[C@H](CO)[C@@H](OCc3ccccc3)[C@@H]2O1 | 10 to 15% |
| C=Cc1ccc(S(=O)(=O)NC[C@H]2C[C@@H]3O[C@H](COCc4ccccc4)[C@@H](OCc4ccccc4)[C@@H]3O2)cc1 | > 15% |
| C=Cc1cccc(S(=O)(=O)NC[C@@H]2C[C@@H]3O[C@H](COCc4ccccc4)[C@@H](OCc4ccccc4)[C@@H]3O2)c1 | > 15% |
| C=CC(=O)NC[C@@H]1C[C@@H]2O[C@H](CO)[C@@H](OCc3ccccc3)[C@@H]2O1 | 0.5 to 5% |
| C=CS(=O)(=O)NCCNc1ccc2ccccc2c1 | 5 to 10% |
| C=CC(=O)NC[C@@H]1C[C@@H]2O[C@H](COCc3ccccc3)[C@@H](OCc3ccccc3)[C@@H]2O1 | 0.5 to 5% |
| C=CS(=O)(=O)NC[C@H]1C[C@@H]2O[C@H](CO)[C@@H](OCc3ccccc3)[C@@H]2O1 | 5 to 10% |
| C=Cc1ccccc1S(=O)(=O)NCCOc1cccc2ccccc12 | 10 to 15% |
| C=Cc1cccc(S(=O)(=O)NCCOc2ccc3ccccc3c2)c1 | 10 to 15% |
| C=Cc1cccc(S(=O)(=O)NC[C@H]2C[C@@H]3O[C@H](COCc4ccccc4)[C@@H](OCc4ccccc4)[C@@H]3O2)c1 | 5 to 10% |
| C=Cc1ccc(S(=O)(=O)NCCOc2ccc3ccccc3c2)cc1 | 10 to 15% |
| C=Cc1ccccc1S(=O)(=O)NCCNc1cccc2ccccc12 | > 15% |

| SMILES | Activity |
| --- | --- |
| C=Cc1ccccc1S(=O)(=O)NCCOc1ccc2ccccc2c1 | 5 to 10% |
| C=Cc1cccc(S(=O)(=O)NC[C@H]2C[C@@H]3O[C@H](CO)[C@@H](OCc4ccccc4)[C@@H]3O2)c1 | 5 to 10% |
| C=CS(=O)(=O)NC[C@H]1C[C@@H]2O[C@H](COCc3ccccc3)[C@@H](OCc3ccccc3)[C@@H]2O1 | 10 to 15% |
| C=CC(=O)NC[C@H]1C[C@@H]2O[C@H](CO)[C@@H](OCc3ccccc3)[C@@H]2O1 | 0.5 to 5% |
| C=CC(=O)NC[C@H]1C[C@@H]2O[C@H](COCc3ccccc3)[C@@H](OCc3ccccc3)[C@@H]2O1 | 0.5 to 5% |
| C=Cc1ccc(S(=O)(=O)NCCNc2cccc3ccccc23)cc1 | 10 to 15% |
| C=Cc1ccccc1S(=O)(=O)NC[C@@H]1C[C@@H]2O[C@H](CO)[C@@H](OCc3ccccc3)[C@@H]2O1 | > 15% |
| C=CS(=O)(=O)NCCOc1ccc2ccccc2c1 | 10 to 15% |
| C=Cc1ccc(S(=O)(=O)NC[C@@H]2C[C@@H]3O[C@H](COCc4ccccc4)[C@@H](OCc4ccccc4)[C@@H]3O2)cc1 | 10 to 15% |
| C=Cc1ccc(S(=O)(=O)NC[C@@H]2C[C@@H]3O[C@H](CO)[C@@H](OCc4ccccc4)[C@@H]3O2)cc1 | 5 to 10% |
| C=Cc1ccccc1S(=O)(=O)NCCNc1ccc2ccccc2c1 | 10 to 15% |
| C=CS(=O)(=O)NCCNc1cccc2ccccc12 | 10 to 15% |
| C=CS(=O)(=O)NC[C@@H]1C[C@@H]2O[C@H](COCc3ccccc3)[C@@H](OCc3ccccc3)[C@@H]2O1 | 10 to 15% |
| C=Cc1ccc(S(=O)(=O)NC[C@H]2C[C@@H]3O[C@H](CO)[C@@H](OCc4ccccc4)[C@@H]3O2)cc1 | 10 to 15% |
| C=Cc1ccc(S(=O)(=O)NCCNc2ccc3ccccc3c2)cc1 | 5 to 10% |
| C=Cc1ccccc1S(=O)(=O)NC[C@@H]1C[C@@H]2O[C@H](COCc3ccccc3)[C@@H](OCc3ccccc3)[C@@H]2O1 | 10 to 15% |

From ChEMBL document CHEMBL3880441, “Irreversible covalent inhibitors of the GTPASE K-RAS G12C” (2014)
